Source: ChEMBL document CHEMBL4049383, “Emergence of Small-Molecule Non-RGD-Mimetic Inhibitors for RGD Integrins” (J Med Chem, 2017)

How the values were obtained:
[1] = Stability of the compound in human microsomes; assay type: ADME, Microsome; conditions: read-out: Stability
[2] = target: Integrin alpha-IIb/beta-3 (Homo sapiens, UniProt P05106+P08514)
Integrin alpha-IIb/beta-3, sequence (P05106 27-788 limits assumed): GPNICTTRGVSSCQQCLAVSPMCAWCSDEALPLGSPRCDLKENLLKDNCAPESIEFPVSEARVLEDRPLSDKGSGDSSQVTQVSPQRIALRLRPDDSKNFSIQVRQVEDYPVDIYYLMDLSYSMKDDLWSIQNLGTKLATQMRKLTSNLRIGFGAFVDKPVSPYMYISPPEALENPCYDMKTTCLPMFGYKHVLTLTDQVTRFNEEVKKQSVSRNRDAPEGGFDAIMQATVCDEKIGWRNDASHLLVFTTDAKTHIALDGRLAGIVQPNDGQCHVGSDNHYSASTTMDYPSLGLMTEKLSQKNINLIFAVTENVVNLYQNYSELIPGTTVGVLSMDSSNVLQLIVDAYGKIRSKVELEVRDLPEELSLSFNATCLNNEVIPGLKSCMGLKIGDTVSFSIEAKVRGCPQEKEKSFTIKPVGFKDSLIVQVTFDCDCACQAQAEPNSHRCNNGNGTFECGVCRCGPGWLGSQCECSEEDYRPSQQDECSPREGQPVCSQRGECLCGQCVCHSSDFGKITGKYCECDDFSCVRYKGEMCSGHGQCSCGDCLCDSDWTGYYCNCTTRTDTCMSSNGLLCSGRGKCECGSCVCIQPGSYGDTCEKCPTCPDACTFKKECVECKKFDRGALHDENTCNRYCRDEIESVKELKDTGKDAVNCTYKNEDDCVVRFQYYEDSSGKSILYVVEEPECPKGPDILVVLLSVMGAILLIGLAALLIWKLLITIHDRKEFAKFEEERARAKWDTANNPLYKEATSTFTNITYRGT
Integrin alpha-IIb/beta-3, sequence (P08514 32-887 limits assumed): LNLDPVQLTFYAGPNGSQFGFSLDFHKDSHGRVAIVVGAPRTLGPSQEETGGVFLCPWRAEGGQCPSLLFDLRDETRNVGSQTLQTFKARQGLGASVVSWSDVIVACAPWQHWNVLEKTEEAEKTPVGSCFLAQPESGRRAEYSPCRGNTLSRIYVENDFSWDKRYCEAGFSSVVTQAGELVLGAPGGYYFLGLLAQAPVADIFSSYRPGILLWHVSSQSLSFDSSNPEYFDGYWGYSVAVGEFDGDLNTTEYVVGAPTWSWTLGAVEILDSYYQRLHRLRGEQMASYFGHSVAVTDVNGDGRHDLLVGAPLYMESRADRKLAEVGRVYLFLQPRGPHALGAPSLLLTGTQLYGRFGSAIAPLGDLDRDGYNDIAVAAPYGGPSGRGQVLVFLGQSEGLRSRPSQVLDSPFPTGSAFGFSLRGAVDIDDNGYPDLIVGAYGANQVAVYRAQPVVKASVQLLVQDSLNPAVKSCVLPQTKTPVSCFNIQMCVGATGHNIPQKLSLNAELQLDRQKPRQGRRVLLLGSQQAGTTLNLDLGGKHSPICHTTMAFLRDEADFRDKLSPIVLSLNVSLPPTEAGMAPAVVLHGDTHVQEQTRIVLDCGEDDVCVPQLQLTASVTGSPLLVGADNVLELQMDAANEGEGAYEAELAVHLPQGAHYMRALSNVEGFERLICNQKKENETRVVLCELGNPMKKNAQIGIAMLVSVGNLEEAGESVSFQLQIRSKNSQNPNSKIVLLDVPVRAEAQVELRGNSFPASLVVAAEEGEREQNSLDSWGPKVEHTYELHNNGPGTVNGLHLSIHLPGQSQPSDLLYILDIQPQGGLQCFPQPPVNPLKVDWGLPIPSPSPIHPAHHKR
Integrin alpha-IIb/beta-3, sequence (P08514 891-1039 limits assumed): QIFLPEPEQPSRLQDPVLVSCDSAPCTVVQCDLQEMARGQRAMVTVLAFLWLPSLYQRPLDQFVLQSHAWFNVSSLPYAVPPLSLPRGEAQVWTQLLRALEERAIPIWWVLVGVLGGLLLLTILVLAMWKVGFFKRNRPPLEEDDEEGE
Description: Displacement of [3H]UR-3189 from integrin alpha2b beta3 receptor in resting human platelet

SMILES	microsomal CLint [1] [µL/min/mg]	Ki [2] [nM]
NCC(=O)Nc1cncc(-c2nn3c(=O)cc(N4CCNCC4)nc3s2)c1 [ZALUNFIBAN]	23.2	
[H]/N=C(\N)c1ccc(C(=O)N[C@@H](Cc2ccc([N+](=O)[O-])cc2)C(=O)N2CCc3nn(CC(=O)O)cc3C2)cc1		< 1
